Earlier results on two compounds are cited in US20050272755A1, “Method for treating abnormal cell growth” (priority 2004, published 2005).

SMILES strings stand for the structures. Counter-ions that a name gives are not always drawn. Like-named read-outs stand apart in the source and are kept apart here.

Data set [1] has as its system colorectal cancer. Particulars: colorectal cancer patients resistant to 5-FU.
The test system of data set [2] is metastatic colorectal cancer.

Take `CCc1c2c(nc3ccc(OC(=O)N4CCC(N5CCCCC5)CC4)cc13)-c1cc3c(c(=O)n1C2)COC(=O)[C@]3(O)CC` [CPT-11, irinotecan hydrochloride trihydrate]: in data set [1], the “survival compared with 5-FU/FA best infusional regimens” value is on record as “longer survival” and the “survival compared with supportive care only” value is “longer survival”.

For the compound `CCCCCOC(=O)Nc1nc(=O)n([C@@H]2O[C@H](C)[C@@H](O)[C@H]2O)cc1F` [capecitabine, 5′-deoxy-5-fluoro-N-[(pentyloxy)-carbonyl]-cytidine], the median survival is 13.3 months in data set [2] (European trial) and 12.5 months in data set [2] (US trial). For the same compound, in data set [2] (capecitabine treatment arms), the “grade 3-4 toxicity: diarrhea” value is reported as 14%. Further, the “grade 3-4 toxicity: hand-foot syndrome” value in data set [2] (capecitabine treatment arms) was 17%. Moreover, the Overall response rate in data set [2] (first of the two phase III studies ('respectively'; Europe N=602 named first), capecitabine 2500 mg/m^2/day for 14 days every 3 weeks) was 21%; in data set [2] (second of the two phase III studies ('respectively'; US N=605 named second)), 21%.
